Test system: 75 nadA (RNA, riboswitch) GGGUUUGGUUGCAACAUCCCCGUGGGUUGGGUGAUGGCUCCAAUCAGAGCCGGAACAGCGAAUCCACUGCAACCGUGA
Test: in-line probing
Conditions: 20 mM Mg2+, 100 mM K+; 50 mM Tris-HCl pH 8.3, 23 °C, 42–72 h; apparent

Structure (SMILES): NC(=O)c1ccc[n+]([C@@H]2O[C@H](COP(=O)(O)OP(=O)(O)OC[C@H]3O[C@@H](n4cnc5c(N)ncnc54)[C@H](O)[C@@H]3O)[C@@H](O)[C@H]2O)c1
- KD: ~ 90 μM

From PMC6859854 (2019)
